Source: US7511065B2, “Mixed lineage kinase modulators” (Eli Lilly and Company, priority 2002, dated 2009)
Counter-ions that a name gives are not always drawn.

Biological target: T1, MLK-7 (Homo sapiens, UniProt Q9NYL2)
T1 construct: GST; His tag; made in house; host or cells: Sf9 insect cells (baculovirus, pVL1392)
Test: In vitro assay of purified MLK-7 kinase activity (33P transfer from ATP to myelin basic protein)
Type: biochemical
Settings: recombinant GST-tagged MLK-7 at 1 nm, 30 uM ATP, 5 uM MBP substrate, 2 hours room temperature; read-out: MLK7 IC50
Method in brief: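 GST/His-tagged MLK-7 from Sf9 (baculovirus), 1 nM, with 5 uM MBP, 30 uM ATP plus 33P, 5 mM MgCl2, 2 mM DTT, 4% DMSO in 44 mM HEPES pH 7.4; 2 h at room temperature, stopped with phosphoric acid. Filter-bound 33P counted; IC50 for reduced phosphate transfer, Ki via Cheng-Prusoff.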

T1 sequence (Q9NYL2 1-455 isoform Q9NYL2-2): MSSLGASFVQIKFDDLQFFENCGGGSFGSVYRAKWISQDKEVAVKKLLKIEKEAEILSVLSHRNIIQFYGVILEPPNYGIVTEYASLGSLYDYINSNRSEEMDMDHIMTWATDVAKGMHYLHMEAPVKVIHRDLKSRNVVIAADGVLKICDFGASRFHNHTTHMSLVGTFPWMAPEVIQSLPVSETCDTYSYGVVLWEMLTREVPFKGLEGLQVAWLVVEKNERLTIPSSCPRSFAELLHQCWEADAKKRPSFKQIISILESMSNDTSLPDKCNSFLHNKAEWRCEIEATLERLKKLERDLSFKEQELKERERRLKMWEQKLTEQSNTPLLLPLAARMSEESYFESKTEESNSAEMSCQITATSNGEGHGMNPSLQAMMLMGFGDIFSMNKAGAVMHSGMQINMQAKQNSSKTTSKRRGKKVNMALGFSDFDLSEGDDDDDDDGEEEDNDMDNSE

Row | Compound | IC50
1 | c1ccc(-c2nn3c(c2-c2ccnc4cc(-n5ccnc5)ccc24)CCC3)nc1 [Example 98, 7-Imidazol-1-yl-4-(2-pyridin-2-yl-5,6-dihydro-4H-pyrrolo[1,2-b]pyrazol-3-yl)quinoline Ditrifluoroacetic Acid] | ≤ 1000 nM
2 | NS(=O)(=O)c1ccc(-c2ccc3c(-c4c(-c5ccccn5)nn5c4CCC5)ccnc3c2)s1 [Example 92, 5-[4-(2-Pyridin-2-yl-5,6-dihydro-4H-pyrrolo[1,2-b]pyrazol-3-yl)-quinolin-7-yl]-thiophene-2-sulfonic acid amide Trifluoroacetic Acid] | ≤ 100 nM
3 | c1ccc(-c2nn3c(c2-c2ccnc4cc(-n5cccn5)ccc24)CCC3)nc1 [Example 100, 7-Pyrazol-1-yl-4-(2-pyridin-2-yl-5,6-dihydro-4H-pyrrolo[1,2-b]pyrazol-3-yl)quinoline Trifluoroacetic Acid] | ≤ 100 nM
4 | CC(C)(C)OC(=O)CC[C@H](NC(=O)c1ccc(-c2ccc3c(-c4c(-c5ccccn5)nn5c4CCC5)ccnc3c2)cc1)C(=O)OC(C)(C)C [Example 135, 2(S)-{4-[4-(2-Pyridin-2-yl-5,6-dihydro-4H-pyrrolo[1,2-b]pyrazol-3-yl)-quinolin-7-yl]-benzoylamino}-pentanedioic Acid Di-tert-Butyl Ester] | ≤ 1000 nM
5 | O=C(O)C(F)F.c1ccc(-c2nn3c(c2-c2ccnc4cc(-c5cncnc5)ccc24)CCC3)nc1 [Example 88, 4-(2-pyridin-2-yl-5,6-dihydro-4H-pyrrolo[1,2-b]pyrazol-3-yl)-7-pyrimidin-5-yl-quinoline Difluoroacetic Acid] | ≤ 1000 nM
6 | O=C(c1ccc(-c2ccc3c(-c4c(-c5ccccn5)nn5c4CCC5)ccnc3c2)cc1)N1CCCCC1 [Example 122, Piperidin-1-yl-{4-[4-(2-pyridin-2-yl-5,6-dihydro-4H-pyrrolo[1,2-b]pyrazol-3-yl)-quinolin-7-yl]-phenyl}-methanone] | ≤ 100 nM
7 | NC(=O)CCc1ccc(-c2ccc3c(-c4c(-c5ccccn5)nn5c4CCC5)ccnc3c2)cc1 [Example 107, 3-{4-[4-(2-Pyridin-2-yl-5,6-dihydro-4H-pyrrolo[1,2-b]pyrazol-3-yl)quinolin-7-yl]phenyl}propionamide] | ≤ 100 nM
8 | O=C(O)CCNC(=O)c1ccc(-c2ccc3c(-c4c(-c5ccccn5)nn5c4CCC5)ccnc3c2)cc1 [Example 147, 3-{4-[4-(2-Pyridin-2-yl-5,6-dihydro-4H-pyrrolo[1,2-b]pyrazol-3-yl)-quinolin-7-yl]-benzoylamino}-propionic Acid Trifluoroacetic Acid Salt] | ≤ 100 nM
9 | c1ccc(-c2nn3c(c2-c2ccnc4cc(-c5ccc(C6CCCCC6)cc5)ccc24)CCC3)nc1 [Example 53, 7-(4-Cyclohexyl-phenyl)-4-(2-pyridin-2-yl-5,6-dihydro-4H-pyrrolo[1,2-b]pyrazol-3-yl)-quinoline Trifluoroacetic Acid] | ≤ 10000 nM
10 | Nc1nc2ccc(-c3ccc4c(-c5c(-c6ccccn6)nn6c5CCC6)ccnc4c3)cc2s1 [Example 94, 6-[4-(2-Pyridin-2-yl-5,6-dihydro-4H-pyrrolo[1,2-b]pyrazol-3-yl)-quinolin-7-yl]-benzothiazol-2-yl amine Tris trifluoroacetic Acid] | ≤ 100 nM
11 | O=[N+]([O-])c1ccccc1-c1ccc2c(-c3c(-c4ccccn4)nn4c3CCC4)ccnc2c1 [Example 36, 7-(2-Nitrophenyl)-4-(2-pyridin-2-yl-5,6-dihydro-4H-pyrrolo[1,2-b]pyrazol-3-yl)quinoline Trifluoroacetic Acid] | ≤ 1000 nM

Continued, values first:

Row | IC50 | Compound
12 | ≤ 100 nM | O=C(O)Cc1ccc(-c2ccc3c(-c4c(-c5ccccn5)nn5c4CCC5)ccnc3c2)cc1 [Example 74, {4-[4-(2-pyridin-2-yl-5,6-dihydro-4H-pyrrolo[1,2-b]pyrazol-3-yl)quinolin-7-yl]phenyl}acetic Acid Trifluoroacetic Acid]
13 | ≤ 100 nM | Clc1ccc(-c2ccc3c(-c4c(-c5ccccn5)nn5c4CCC5)ccnc3c2)cc1 [Example 12, 7-(4-Chlorophenyl)-4-(2-pyridin-2-yl-5,6-dihydro-4H-pyrrolo[1,2-b]pyrazol-3-yl)quinoline Trifluoroacetic Acid]
14 | ≤ 1000 nM | CCSc1ccc(-c2ccc3c(-c4c(-c5ccccn5)nn5c4CCC5)ccnc3c2)cc1 [Example 24, 7-(4-Ethylsulfanylphenyl)-4-(2-pyridin-2-yl-5,6-dihydro-4H-pyrrolo[1,2-b]pyrazol-3-yl)quinoline Trifluoroacetic Acid]
15 | ≤ 100 nM | Cc1cccc(-c2nn3c(c2-c2ccnc4cc(-c5cccc([N+](=O)[O-])c5)ccc24)CCC3)n1 [Example 63, 4-[2-(6-Methyl-pyridin-2-yl)-5,6-dihydro-4H-pyrrolo[1,2-b]pyrazol-3-yl]-7-(3-nitro-phenyl)quinoline]
16 | ≤ 100 nM | COc1ccc(-c2ccc3c(-c4c(-c5cccc(C)n5)nn5c4CCC5)ccnc3c2)cc1 [Example 60, 7-(4-Methoxy-phenyl)-4-[2-(6-methyl-pyridin-2-yl)-5,6-dihydro-4H-pyrrolo[1,2-b]pyrazol-3-yl]-quinoline]
17 | ≤ 1000 nM | Cc1cccc(-c2nn3c(c2-c2ccnc4cc(-c5ccc(Cl)cc5)ccc24)CCC3)n1 [Example 64, 7-(4-Chloro-phenyl)-4-[2-(6-methyl-pyridin-2-yl)-5,6-dihydro-4H-pyrrolo[1,2-b]pyrazol-3-yl]-quinoline]
18 | ≤ 1000 nM | CC(C)Cc1ccc(-c2ccc3c(-c4c(-c5ccccn5)nn5c4CCC5)ccnc3c2)cc1 [Example 45, 7-(4-Isobutylphenyl)-4-(2-pyridin-2-yl-5,6-dihydro-4H-pyrrolo[1,2-b]pyrazol-3-yl)quinoline Trifluoroacetic Acid]
19 | ≤ 100 nM | OCCOc1ccc(-c2ccc3c(-c4c(-c5ccccn5)nn5c4CCC5)ccnc3c2)cc1 [Example 73, 2-{4-[4-(2-Pyridin-2-yl-5,6-dihydro-4H-pyrrolo[1,2-b]pyrazol-3-yl)quinolin-yl]phenoxy}ethanol Trifluoroacetic Acid]
